Laboratory results as given in patent US12077503B2, “Substituted cyclic amides and their use as herbicides” (FMC CORPORATION, priority 2015, dated 2024).

Legend:
Type in all cases: in vivo
[1] = tested on: sedge, umbrella (small-flower umbrella sedge, Cyperus difformis); assay: Test B flooded paddy test; conditions: Cyperus difformis, 360 h, Flood, 250 g ai/ha; visually evaluated after 13 to 15 d; read-out: Plant response rating, Sedge, Umbrella (0 to 100 scale where 0 is no effect and 100 is complete control)
In short: (§1)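 Response scored visually against untreated controls, 0 = no effect and 100 = complete control, 13–15 d after treatment in the greenhouse. Compounds added to paddy water held 3 cm above soil surface. Treatment given at 2-leaf stage.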

[2] = tested on: ducksalad (Heteranthera limosa); assay: Test B flooded paddy test; conditions: Heteranthera limosa, 360 h, Flood, 250 g ai/ha; visually evaluated after 13 to 15 d; read-out: Plant response rating, Ducksalad (0 to 100 scale where 0 is no effect and 100 is complete control)
In short: as §1

[3] = tested on: rice (Oryra sativa); assay: Test B flooded paddy test; conditions: Oryza sativa, 360 h, Flood, 250 g ai/ha; visually evaluated after 13 to 15 d; read-out: Plant response rating, Rice (0 to 100 scale where 0 is no effect and 100 is complete control)
In short: as §1

[4] = tested on: barnyardgrass (Echinochloa crus-galli); assay: Test B flooded paddy test; conditions: Echinochloa crus-galli, 360 h, Flood, 250 g ai/ha; visually evaluated after 13 to 15 d; read-out: Plant response rating, Barnyardgrass (0 to 100 scale where 0 is no effect and 100 is complete control)
In short: as §1

[5] = tested on: wheat (Triticum aestivum); assay: Test A postemergence; conditions: Triticum aestivum, post-emergence, 240 h, Postemergence, read-out: Wheat plant response rating (0 to 100 scale); for plant injury at 125 g/ha: 125 g ai/ha, visual rating about 10 d after treatment; for plant injury at 31 g/ha: 31 g ai/ha, 0 is no effect, 100 is complete control
In short: (§2)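 Preemergence soil spray on seeded pots or post-emergence spray on 1–2 leaf plants, in loam–sand blend. Greenhouse ~10 d. Visual rating 0–100 against untreated plants.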

[6] = tested on: ryegrass, Italian (Italian ryegrass, Lolium multiflorum); assay: Test A postemergence; conditions: Lolium multiflorum, post-emergence, 240 h, Postemergence, read-out: Ryegrass, Italian plant response rating (0 to 100 scale); for pest or weed control at 125 g/ha: 125 g ai/ha, visual rating about 10 d after treatment; for pest or weed control at 31 g/ha: 31 g ai/ha, 0 is no effect, 100 is complete control
In short: as §2

[7] = tested on: corn (Zea mays); assay: Test A postemergence; conditions: Zea mays, post-emergence, 240 h, Postemergence, read-out: Corn plant response rating (0 to 100 scale); for plant injury at 125 g/ha: 125 g ai/ha, visual rating about 10 d after treatment; for plant injury at 31 g/ha: 31 g ai/ha, 0 is no effect, 100 is complete control
In short: as §2

[8] = tested on: giant foxtail (Setaria faberii); assay: Test A postemergence; conditions: Setaria faberi, post-emergence, 240 h, Postemergence, read-out: Foxtail, Giant plant response rating (0 to 100 scale); for pest or weed control at 125 g/ha: 125 g ai/ha, visual rating about 10 d after treatment; for pest or weed control at 31 g/ha: 31 g ai/ha, 0 is no effect, 100 is complete control
In short: as §2

[9] = tested on: Galium (catchweed bedstraw, Galium aparine); assay: Test A postemergence; conditions: Galium, post-emergence, 240 h, Postemergence, read-out: Galium plant response rating (0 to 100 scale); for pest or weed control at 125 g/ha: 125 g ai/ha, visual rating about 10 d after treatment; for pest or weed control at 31 g/ha: 31 g ai/ha, 0 is no effect, 100 is complete control
In short: as §2

[10] = tested on: blackgrass (Alopecurus myosuroides); assay: Test A postemergence; conditions: Alopecurus myosuroides, post-emergence, 240 h, Postemergence, read-out: Blackgrass plant response rating (0 to 100 scale); for pest or weed control at 125 g/ha: 125 g ai/ha, visual rating about 10 d after treatment; for pest or weed control at 31 g/ha: 31 g ai/ha, 0 is no effect, 100 is complete control
In short: as §2

[11] = tested on: ragweed (common ragweed, Ambrosia elatior); assay: Test A postemergence; conditions: Ambrosia artemisiifolia, post-emergence, 240 h, Postemergence, read-out: Ragweed plant response rating (0 to 100 scale); for pest or weed control at 125 g/ha: 125 g ai/ha, visual rating about 10 d after treatment; for pest or weed control at 31 g/ha: 31 g ai/ha, 0 is no effect, 100 is complete control
In short: as §2

[12] = tested on: pigweed (Amaranthus retroflexus); assay: Test A postemergence; conditions: Amaranthus retroflexus, post-emergence, 240 h, Postemergence, read-out: Pigweed plant response rating (0 to 100 scale); for pest or weed control at 125 g/ha: 125 g ai/ha, visual rating about 10 d after treatment; for pest or weed control at 31 g/ha: 31 g ai/ha, 0 is no effect, 100 is complete control
In short: as §2

[13] = tested on: barnyardgrass (Echinochloa crus-galli); assay: Test A postemergence; conditions: Echinochloa crus-galli, post-emergence, 240 h, Postemergence; for pest or weed control at 125 g/ha: 125 g ai/ha, visual rating about 10 d after treatment, read-out: Barnyardgrass plant response rating (0 to 100 scale, 0 no effect, 100 complete control); for pest or weed control at 31 g/ha: 31 g ai/ha, 0 is no effect, 100 is complete control, read-out: Barnyardgrass plant response rating (0 to 100 scale)
In short: as §2

[14] = tested on: Kochia (Kochia scoparia); assay: Test A postemergence; conditions: Bassia scoparia, post-emergence, 240 h, Postemergence, read-out: Kochia plant response rating (0 to 100 scale); for pest or weed control at 125 g/ha: 125 g ai/ha, visual rating about 10 d after treatment; for pest or weed control at 31 g/ha: 31 g ai/ha, 0 is no effect, 100 is complete control
In short: as §2

[15] = tested on: ryegrass, Italian (Italian ryegrass, Lolium multiflorum); assay: Test A preemergence; conditions: Lolium multiflorum, pre-emergence, 240 h, Preemergence; for pest or weed control at 31 g/ha: 31 g ai/ha, 0 to 100 scale where 0 is no effect and 100 is complete control, read-out: Ryegrass, Italian plant response rating; for pest or weed control at 125 g/ha: 125 g ai/ha, 0 to 100 scale (0 no effect, 100 complete control), read-out: Plant response rating, Ryegrass, Italian
In short: as §2

[16] = tested on: giant foxtail (Setaria faberii); assay: Test A preemergence; conditions: Setaria faberi, pre-emergence, 240 h, Preemergence; for pest or weed control at 31 g/ha: 31 g ai/ha, 0 to 100 scale where 0 is no effect and 100 is complete control, read-out: Foxtail, Giant plant response rating; for pest or weed control at 125 g/ha: 125 g ai/ha, 0 to 100 scale (0 no effect, 100 complete control), read-out: Plant response rating, Foxtail, Giant
In short: as §2

[17] = tested on: ragweed (common ragweed, Ambrosia elatior); assay: Test A preemergence; conditions: Ambrosia artemisiifolia, pre-emergence, 240 h, Preemergence; for pest or weed control at 31 g/ha: 31 g ai/ha, 0 to 100 scale where 0 is no effect and 100 is complete control, read-out: Ragweed plant response rating; for pest or weed control at 125 g/ha: 125 g ai/ha, 0 to 100 scale (0 no effect, 100 complete control), read-out: Plant response rating, Ragweed
In short: as §2

[18] = tested on: pigweed (Amaranthus retroflexus); assay: Test A preemergence; conditions: Amaranthus retroflexus, pre-emergence, 240 h, Preemergence; for pest or weed control at 31 g/ha: 31 g ai/ha, 0 to 100 scale where 0 is no effect and 100 is complete control, read-out: Pigweed plant response rating; for pest or weed control at 125 g/ha: 125 g ai/ha, 0 to 100 scale (0 no effect, 100 complete control), read-out: Plant response rating, Pigweed
[19] = tested on: barnyardgrass (Echinochloa crus-galli); assay: Test A preemergence; conditions: Echinochloa crus-galli, pre-emergence, 240 h, Preemergence; for pest or weed control at 31 g/ha: 31 g ai/ha, 0 to 100 scale where 0 is no effect and 100 is complete control, read-out: Barnyardgrass plant response rating; for pest or weed control at 125 g/ha: 125 g ai/ha, 0 to 100 scale (0 no effect, 100 complete control), read-out: Plant response rating, Barnyardgrass
In short: as §2

[20] = tested on: Kochia (Kochia scoparia); assay: Test A preemergence; conditions: Bassia scoparia, pre-emergence, 240 h, Preemergence; for pest or weed control at 31 g/ha: 31 g ai/ha, 0 to 100 scale where 0 is no effect and 100 is complete control, read-out: Kochia plant response rating; for pest or weed control at 125 g/ha: 125 g ai/ha, 0 to 100 scale (0 no effect, 100 complete control), read-out: Plant response rating, Kochia
In short: as §2

SMILES	pest or weed control at 250 g/ha [1] [%]	pest or weed control at 250 g/ha [2] [%]	pest or weed control at 250 g/ha [3] [%]	pest or weed control at 250 g/ha [4] [%]	plant injury at 125 g/ha [5] [%]	plant injury at 31 g/ha [5] [%]	pest or weed control at 125 g/ha [6] [%]	pest or weed control at 31 g/ha [6] [%]	plant injury at 125 g/ha [7] [%]	plant injury at 31 g/ha [7] [%]	pest or weed control at 125 g/ha [8] [%]	pest or weed control at 31 g/ha [8] [%]	pest or weed control at 125 g/ha [9] [%]	pest or weed control at 31 g/ha [9] [%]	pest or weed control at 125 g/ha [10] [%]	pest or weed control at 31 g/ha [10] [%]	pest or weed control at 125 g/ha [11] [%]	pest or weed control at 31 g/ha [11] [%]	pest or weed control at 125 g/ha [12] [%]	pest or weed control at 31 g/ha [12] [%]	also measured
CC(C)Oc1ccc([C@H]2CN(C)C(=O)[C@@H]2C(=O)Nc2ccccc2F)cc1F [Compound 1333]	70	80	20	45	0	0	0	0	0	0	60	0	0	0	0	0	0	0	10	0	pest or weed control at 125 g/ha [13]: 70%; pest or weed control at 31 g/ha [13]: 0%; pest or weed control at 125 g/ha [14]: 0%; pest or weed control at 31 g/ha [14]: 0%; pest or weed control at 31 g/ha [15]: 0%; pest or weed control at 125 g/ha [15]: 0%; pest or weed control at 31 g/ha [16]: 90%; pest or weed control at 125 g/ha [16]: 90%; pest or weed control at 31 g/ha [17]: 0%; pest or weed control at 125 g/ha [17]: 0%; pest or weed control at 31 g/ha [18]: 0%; pest or weed control at 125 g/ha [18]: 0%; pest or weed control at 31 g/ha [19]: 40%; pest or weed control at 125 g/ha [19]: 70%; pest or weed control at 31 g/ha [20]: 0%; pest or weed control at 125 g/ha [20]: 30%
COc1c([C@H]2CN(C)C(=O)[C@@H]2C(=O)Nc2cccc(F)c2F)cccc1C(F)(F)F [Compound 1339]	0	100	60	95	0	0	0	0	0	0	80	70	50	30	0	0	20	0	30	20	pest or weed control at 125 g/ha [13]: 90%; pest or weed control at 31 g/ha [13]: 70%; pest or weed control at 125 g/ha [14]: 20%; pest or weed control at 31 g/ha [14]: 0%; pest or weed control at 31 g/ha [15]: 0%; pest or weed control at 125 g/ha [15]: 20%; pest or weed control at 31 g/ha [16]: 80%; pest or weed control at 125 g/ha [16]: 90%; pest or weed control at 31 g/ha [17]: 0%; pest or weed control at 125 g/ha [17]: 0%; pest or weed control at 31 g/ha [18]: 0%; pest or weed control at 125 g/ha [18]: 0%; pest or weed control at 31 g/ha [19]: 90%; pest or weed control at 125 g/ha [19]: 90%; pest or weed control at 31 g/ha [20]: 0%; pest or weed control at 125 g/ha [20]: 50%
